System: TLBro
Settings: pH 8.0, 37°C, 10 mM Tris-HCl, 100 mM NaCl, 10 mM CaCl2

With N=C(N)NCCCC(NC(=O)c1ccccc1)C(=O)Nc1ccc([N+](=O)[O-])cc1 (racemic) [DL-BAρNA, N-benzoyl-L-arginine-ρ-nitroanilide] as the compound, how does the Km read?
The Km was 850 µM.

Source: PMC10720248 (Frontiers in Chemistry, 2023)
